Broadly, the IC50 is the concentration that gives 50% inhibition. Read a low IC50 as inhibition by little substance.

Among the data in BindingDB's records for patent US20240360157 (Biogen Ma, 2024) are IC50 values, retold here.

Holding throughout (assay): ADP-Glo Kinase Assay
(ADP-Glo first removes unused ATP, then detects ADP through luciferase.)

The target of test [1] is T1, Tyrosine-protein kinase JAK3 [3-974] (UniProt P52333).
T1 construct: 3-974
T1 sequence (P52333 whole entry): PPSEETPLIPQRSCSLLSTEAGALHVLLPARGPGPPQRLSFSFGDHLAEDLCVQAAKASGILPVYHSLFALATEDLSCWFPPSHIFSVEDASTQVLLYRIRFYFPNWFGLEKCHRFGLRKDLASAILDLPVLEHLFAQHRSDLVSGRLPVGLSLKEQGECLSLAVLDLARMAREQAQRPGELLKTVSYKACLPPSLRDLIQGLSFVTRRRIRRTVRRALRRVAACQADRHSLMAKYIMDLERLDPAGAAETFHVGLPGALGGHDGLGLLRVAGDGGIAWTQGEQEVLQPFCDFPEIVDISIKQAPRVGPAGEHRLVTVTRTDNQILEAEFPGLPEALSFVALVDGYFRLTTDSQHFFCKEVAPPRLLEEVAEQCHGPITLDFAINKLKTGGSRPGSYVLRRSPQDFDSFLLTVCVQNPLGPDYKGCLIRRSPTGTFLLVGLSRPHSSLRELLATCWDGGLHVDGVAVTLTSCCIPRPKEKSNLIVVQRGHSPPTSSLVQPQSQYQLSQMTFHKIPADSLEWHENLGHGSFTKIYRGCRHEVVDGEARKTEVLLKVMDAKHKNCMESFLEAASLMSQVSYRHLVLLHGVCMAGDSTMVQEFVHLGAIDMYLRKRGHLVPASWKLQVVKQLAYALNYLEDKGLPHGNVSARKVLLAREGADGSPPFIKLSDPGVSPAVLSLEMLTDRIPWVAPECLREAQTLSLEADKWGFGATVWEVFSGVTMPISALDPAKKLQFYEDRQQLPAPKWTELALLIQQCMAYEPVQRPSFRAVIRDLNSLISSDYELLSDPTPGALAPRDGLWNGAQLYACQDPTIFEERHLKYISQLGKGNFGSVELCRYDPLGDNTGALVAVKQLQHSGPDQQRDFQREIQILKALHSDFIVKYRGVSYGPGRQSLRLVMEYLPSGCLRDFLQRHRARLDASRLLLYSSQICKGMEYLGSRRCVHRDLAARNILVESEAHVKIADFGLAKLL
The protocol: (§1) The kinase activity of recombinantly generated catalytic kinase (also known as JH1) domain of human JAK1, JAK2, JAK3 and TYK2 were evaluated in a plate-based assay using the ADP-Glo™ Kinase Assay platform. Specifically, 4 nM of recombinant JAK1 kinase domain is used to phosphorylate 50 μM of a JAK3-342 (sequence ALVDGYFRLTT) peptide in the presence of 35 μM ATP. Catalytic activities of recombinant JAK2, JAK3 and TYK2 kinase domain (0.2, 0.3 and 2 nM, respectively) are evaluated by the phosphorylation status of the JAK3-974 (50 μM; sequence LPLDKDYYVVR) peptide with the addition of ATP (15, 4 and 10 μM, respectively). The reactions proceed for 100 minutes and the catalytic activity is quantified by first depleting the unused ATP, converting the hydrolyzed ADP into ATP to generate luminescence in a luciferase reaction; which is the basis of the ADP-Glo platform. Compounds are tested at either 10 μM or 1 μM top concentration, 11 points of 3-fold dilution.

The target of test [2] is Tyrosine-protein kinase JAK1 (Homo sapiens, UniProt P23458). The protocol: as §1
In test [3] the target is Tyrosine-protein kinase JAK2 (Homo sapiens, UniProt O60674). As to the method: as §1
Test [4] addresses Non-receptor tyrosine-protein kinase TYK2 (Homo sapiens, UniProt P29597). The protocol: as §1

Tyrosine-protein kinase JAK1, sequence (P23458 whole entry): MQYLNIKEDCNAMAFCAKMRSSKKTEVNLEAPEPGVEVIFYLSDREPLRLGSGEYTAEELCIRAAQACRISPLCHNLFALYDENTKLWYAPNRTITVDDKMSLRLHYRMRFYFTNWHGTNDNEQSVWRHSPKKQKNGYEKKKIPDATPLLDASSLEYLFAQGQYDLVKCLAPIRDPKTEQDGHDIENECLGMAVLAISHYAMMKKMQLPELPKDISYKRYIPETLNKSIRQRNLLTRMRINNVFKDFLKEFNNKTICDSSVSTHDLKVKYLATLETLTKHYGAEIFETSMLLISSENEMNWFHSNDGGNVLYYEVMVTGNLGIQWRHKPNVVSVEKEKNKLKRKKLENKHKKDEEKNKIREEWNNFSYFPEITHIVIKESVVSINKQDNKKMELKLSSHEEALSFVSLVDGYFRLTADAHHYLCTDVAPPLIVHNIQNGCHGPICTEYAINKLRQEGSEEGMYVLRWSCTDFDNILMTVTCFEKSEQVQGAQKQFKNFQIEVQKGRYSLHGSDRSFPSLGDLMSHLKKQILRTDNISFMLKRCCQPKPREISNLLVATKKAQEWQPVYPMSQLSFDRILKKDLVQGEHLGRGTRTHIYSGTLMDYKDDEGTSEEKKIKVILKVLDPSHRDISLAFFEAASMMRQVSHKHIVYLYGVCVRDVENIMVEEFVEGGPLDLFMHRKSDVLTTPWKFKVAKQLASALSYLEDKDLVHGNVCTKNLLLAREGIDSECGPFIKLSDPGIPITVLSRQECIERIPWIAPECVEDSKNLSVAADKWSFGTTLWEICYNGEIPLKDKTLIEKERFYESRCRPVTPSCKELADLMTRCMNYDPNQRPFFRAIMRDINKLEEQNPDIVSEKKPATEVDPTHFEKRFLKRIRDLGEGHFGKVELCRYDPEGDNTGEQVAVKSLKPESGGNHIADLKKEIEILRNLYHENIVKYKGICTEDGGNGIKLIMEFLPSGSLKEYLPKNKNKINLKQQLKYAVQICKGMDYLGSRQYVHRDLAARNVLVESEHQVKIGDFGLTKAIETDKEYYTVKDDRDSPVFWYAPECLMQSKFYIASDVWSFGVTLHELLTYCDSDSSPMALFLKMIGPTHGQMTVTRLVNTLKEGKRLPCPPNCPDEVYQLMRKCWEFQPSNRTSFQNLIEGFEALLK
Tyrosine-protein kinase JAK2, sequence (O60674 whole entry): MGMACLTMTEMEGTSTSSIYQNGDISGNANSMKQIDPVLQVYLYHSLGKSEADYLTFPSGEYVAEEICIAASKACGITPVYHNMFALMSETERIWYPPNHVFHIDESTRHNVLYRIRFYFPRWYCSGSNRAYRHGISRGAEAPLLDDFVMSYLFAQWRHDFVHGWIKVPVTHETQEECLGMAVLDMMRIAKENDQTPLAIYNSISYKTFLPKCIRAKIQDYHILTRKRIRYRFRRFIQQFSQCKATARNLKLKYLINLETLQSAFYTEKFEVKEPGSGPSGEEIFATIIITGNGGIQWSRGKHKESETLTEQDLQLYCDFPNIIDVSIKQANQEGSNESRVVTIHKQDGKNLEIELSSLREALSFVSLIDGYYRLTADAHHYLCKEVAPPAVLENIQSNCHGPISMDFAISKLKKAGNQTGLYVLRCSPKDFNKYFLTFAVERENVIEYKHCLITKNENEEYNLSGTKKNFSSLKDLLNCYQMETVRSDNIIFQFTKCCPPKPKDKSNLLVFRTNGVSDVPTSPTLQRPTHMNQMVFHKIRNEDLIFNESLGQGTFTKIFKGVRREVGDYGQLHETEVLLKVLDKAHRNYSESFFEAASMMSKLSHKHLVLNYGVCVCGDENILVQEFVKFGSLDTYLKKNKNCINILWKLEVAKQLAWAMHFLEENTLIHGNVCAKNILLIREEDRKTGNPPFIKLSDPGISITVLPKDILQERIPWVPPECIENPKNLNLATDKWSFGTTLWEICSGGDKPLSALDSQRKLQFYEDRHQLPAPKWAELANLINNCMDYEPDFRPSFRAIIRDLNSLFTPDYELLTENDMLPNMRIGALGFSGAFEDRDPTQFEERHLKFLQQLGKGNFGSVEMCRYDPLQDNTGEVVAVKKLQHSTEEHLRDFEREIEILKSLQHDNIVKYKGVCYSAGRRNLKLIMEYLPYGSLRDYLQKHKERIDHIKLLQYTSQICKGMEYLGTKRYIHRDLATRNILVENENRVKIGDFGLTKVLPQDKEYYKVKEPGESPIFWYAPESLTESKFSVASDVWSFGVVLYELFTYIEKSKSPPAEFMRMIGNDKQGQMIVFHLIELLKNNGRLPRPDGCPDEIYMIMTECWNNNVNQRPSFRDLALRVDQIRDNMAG
Non-receptor tyrosine-protein kinase TYK2, sequence (P29597 whole entry): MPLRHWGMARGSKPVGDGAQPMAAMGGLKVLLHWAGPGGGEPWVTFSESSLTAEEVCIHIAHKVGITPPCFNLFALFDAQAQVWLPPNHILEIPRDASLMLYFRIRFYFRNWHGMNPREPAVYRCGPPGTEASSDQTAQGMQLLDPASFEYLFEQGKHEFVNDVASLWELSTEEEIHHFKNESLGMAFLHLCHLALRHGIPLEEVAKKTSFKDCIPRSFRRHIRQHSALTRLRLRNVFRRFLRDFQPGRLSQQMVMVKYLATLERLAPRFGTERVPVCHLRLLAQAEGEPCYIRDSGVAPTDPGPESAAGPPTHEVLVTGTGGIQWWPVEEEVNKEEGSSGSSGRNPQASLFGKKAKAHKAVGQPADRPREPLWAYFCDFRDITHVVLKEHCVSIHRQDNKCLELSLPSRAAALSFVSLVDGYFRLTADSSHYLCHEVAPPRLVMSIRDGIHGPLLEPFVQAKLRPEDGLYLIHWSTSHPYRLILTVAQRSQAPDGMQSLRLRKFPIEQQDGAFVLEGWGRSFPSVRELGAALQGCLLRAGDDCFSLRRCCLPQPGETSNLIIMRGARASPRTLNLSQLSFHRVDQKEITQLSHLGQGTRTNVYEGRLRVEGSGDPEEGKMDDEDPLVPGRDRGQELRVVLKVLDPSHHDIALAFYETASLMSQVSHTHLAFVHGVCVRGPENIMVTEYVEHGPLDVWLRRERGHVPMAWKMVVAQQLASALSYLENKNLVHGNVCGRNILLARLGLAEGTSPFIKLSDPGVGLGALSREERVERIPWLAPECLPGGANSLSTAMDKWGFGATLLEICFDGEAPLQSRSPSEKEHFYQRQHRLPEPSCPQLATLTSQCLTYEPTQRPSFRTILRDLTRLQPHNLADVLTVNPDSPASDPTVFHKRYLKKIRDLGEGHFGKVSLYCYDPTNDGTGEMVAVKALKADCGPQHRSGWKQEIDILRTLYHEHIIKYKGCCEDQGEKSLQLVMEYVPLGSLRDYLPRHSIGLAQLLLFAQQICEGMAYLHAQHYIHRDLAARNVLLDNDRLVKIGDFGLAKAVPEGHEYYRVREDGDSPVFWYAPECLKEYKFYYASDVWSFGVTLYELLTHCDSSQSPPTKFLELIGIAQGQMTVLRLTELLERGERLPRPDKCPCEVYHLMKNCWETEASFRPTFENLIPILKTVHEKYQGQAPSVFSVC

In the case of `Cn1cc(-c2cc3c(N4CC5CCC(C4)N5C(=O)[C@@H]4CC4(F)F)ccnc3[nH]2)cn1` [US20240360157, Example 239], the IC50 turned out to be 114 nM in test [1], 18 nM in test [2], 8 nM in test [3] and 0.2 nM in test [4].
Regarding `COc1cc(-c2cc3c(N4CC5CCC(C4)N5C(=O)[C@@H]4C[C@H]4F)ccnc3[nH]2)c(F)cn1` [US20240360157, Example 246], the IC50 in test [1] was 992 nM; in test [2], 76 nM; in test [3], 53 nM; in test [4], 5.1 nM.
